# According to US8193210B2, “Camptothecin derivatives with antitumor activity” (Indena S.p.A., priority 2006, dated 2012):
# Where two headings read alike, the source gives them in different places.
# Columns and labels:
# [1] = target: T1, human recombinant enzyme (full length top1) (Homo sapiens, UniProt P11387); experiment: Topoisomerase-I-dependent DNA rupture assay, persistence of DNA damage; type: biochemical; conditions: 30 min incubation with 10 μM drug
# T1 construct: the human recombinant enzyme (full length top1)
# T1 sequence (P11387 1-765): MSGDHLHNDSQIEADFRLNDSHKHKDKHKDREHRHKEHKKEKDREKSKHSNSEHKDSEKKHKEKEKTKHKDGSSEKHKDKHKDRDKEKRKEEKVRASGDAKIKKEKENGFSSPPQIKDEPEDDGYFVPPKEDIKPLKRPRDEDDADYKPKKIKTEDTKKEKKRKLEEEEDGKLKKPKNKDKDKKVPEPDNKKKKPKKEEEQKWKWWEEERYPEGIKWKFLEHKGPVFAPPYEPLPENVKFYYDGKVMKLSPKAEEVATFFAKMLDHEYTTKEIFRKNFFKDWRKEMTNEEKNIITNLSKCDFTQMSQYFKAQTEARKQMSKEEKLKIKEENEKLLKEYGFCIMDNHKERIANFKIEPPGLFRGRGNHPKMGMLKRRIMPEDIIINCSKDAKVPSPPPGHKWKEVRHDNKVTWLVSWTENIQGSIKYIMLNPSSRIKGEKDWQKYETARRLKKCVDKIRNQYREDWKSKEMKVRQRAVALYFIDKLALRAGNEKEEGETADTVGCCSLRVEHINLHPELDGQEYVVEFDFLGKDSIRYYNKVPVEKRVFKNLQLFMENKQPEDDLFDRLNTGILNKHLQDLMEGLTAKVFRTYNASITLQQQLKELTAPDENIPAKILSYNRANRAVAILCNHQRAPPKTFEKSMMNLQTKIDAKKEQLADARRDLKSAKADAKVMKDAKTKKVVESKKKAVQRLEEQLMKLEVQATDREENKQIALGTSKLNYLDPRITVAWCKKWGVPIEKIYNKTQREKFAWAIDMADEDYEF
# [2] = test system: NCI-H460 cell line (NSCL cancer); experiment: Cell growth inhibition assay (cytotoxicity, cell count); type: cell-based, human; conditions: for IC50: Homo sapiens; for NCl-H460 IC50 (μg/mL) Cell count: H460 cells
# Experimental: The compounds of the invention were tested in a cytotoxicity assay on a wide spectrum of tumour cells. By way of example, the cytotoxicity data on the NCI-H460 cell line (NSCL cancer) concerning two compounds of formula (I) are reported, using camptothecin and the drugs Topotecan and SN-38 as references:
# H460 Cells from human large cell lung tumor were cultured in RPMI-1640 medium containing 10% foetal calf serum. Cell sensitivity was determined by cell growth inhibition assay after 1 or 72 hr drug exposure. The cells in logarithmic growth were collected and seeded in duplicate in 6-wells plates. […] IC50 is defined as the concentration inhibiting by 50% cell growth compared with untreated controls growth.
# [3] = Time 0 min after adding 0.6 M NaCl
# [4] = NCI-H460, read-out: NCl-H460 IC50 (μg/mL) Cell count, H460 cells, 1 or 72 hr drug exposure, counted with Coulter counter 72 hours after exposure
# [5] = 1 or 72 hr drug exposure, counted with Coulter counter 72 hours after exposure
# [6] = NCI-H460, H460 cells, 1 or 72 hr drug exposure, counted with Coulter counter 72 hours after exposure, read-out: NCl-H460 IC50 (μg/mL) Cell count
structure (smiles),measurement,setting,value
"CC[C@@]1(O)C(=O)OCc2c1cc1n(c2=O)C(F)c2cc3ccccc3nc2-1 (single isomer, unassigned) [5-F-camptothecin Isomer 1, 5-F-camptothecin 1st diastereomer]",Persistence of DNA Damage (%),[1]; [3],100%
same,Persistence of DNA Damage (%),"[1]; Time 1 min after adding 0.6 M NaCl, listed as 5-F CPT isomers 1",18%
same,Persistence of DNA Damage (%),"[1]; Time 5 min after adding 0.6 M NaCl, listed as 5-F CPT isomers 1",18%
same,Persistence of DNA Damage (%),"[1]; Time 10 min after adding 0.6 M NaCl, listed as 5-F CPT isomers 1",10%
same,IC50,[2]; [4],20.6 µg/mL
"CC[C@@]1(O)C(=O)OCc2c1cc1n(c2=O)C(F)c2cc3ccccc3nc2-1 (single isomer, unassigned) [5-F-camptothecin Isomer 2, 5-F-camptothecin 2nd diastereomer]",Persistence of DNA Damage (%),[1]; [3],100%
same,Persistence of DNA Damage (%),"[1]; Time 1 min after adding 0.6 M NaCl, listed as 5-F CPT isomers 2",10%
same,Persistence of DNA Damage (%),"[1]; Time 5 min after adding 0.6 M NaCl, listed as 5-F CPT isomers 2",10%
same,Persistence of DNA Damage (%),"[1]; Time 10 min after adding 0.6 M NaCl, listed as 5-F CPT isomers 2",13%
same,NCl-H460 IC50 (μg/mL) Cell count,[2]; [5],20 ± 5.1 µg/mL
"CC[C@@]1(O)C(=O)OCc2c1cc1n(c2=O)C(N=[N+]=[N-])c2cc3ccccc3nc2-1 (single isomer, unassigned) [5-N3 CPT, 5-N3-camptothecin]",Persistence of DNA Damage (%),[1]; [3],100%
same,Persistence of DNA Damage (%),[1]; Time 1 min after adding 0.6 M NaCl,50%
same,Persistence of DNA Damage (%),[1]; Time 5 min after adding 0.6 M NaCl,30%
same,Persistence of DNA Damage (%),[1]; Time 10 min after adding 0.6 M NaCl,15%
"CC[C@@]1(O)C(=O)OCc2c1cc1n(c2=O)C(N=[N+]=[N-])c2cc3ccccc3nc2-1 (single isomer, unassigned) [5-N3-camptothecin Isomer 1, 5-N3-camptothecin 1st diastereomer]",IC50,[2]; [4],4.18 µg/mL
"CC[C@@]1(O)C(=O)OCc2c1cc1n(c2=O)C(N=[N+]=[N-])c2cc3ccccc3nc2-1 (single isomer, unassigned) [5-N3-camptothecin Isomer 2, 5-N3-camptothecin 2nd diastereomer]",NCl-H460 IC50 (μg/mL) Cell count,[2]; [5],2.59 ± 0.7 µg/mL
"CC[C@@]1(O)C(=O)OCc2c1cc1n(c2=O)C(N(NC(=O)OC(C)(C)C)C(=O)OC(C)(C)C)c2cc3ccccc3nc2-1 (single isomer, unassigned) [5-di-tert-butoxycarbonyl-hydrazinocamptothecin Isomer 1, 5-di-t-butoxycarbonylhydrazino-camptothecin 1st diastereomer]",IC50,[2]; [6],50 µg/mL
"CC[C@@]1(O)C(=O)OCc2c1cc1n(c2=O)C(N(NC(=O)OC(C)(C)C)C(=O)OC(C)(C)C)c2cc3ccccc3nc2-1 (single isomer, unassigned) [5-di-tert-butoxycarbonyl-hydrazinocamptothecin Isomer 2, 5-di-t-butoxycarbonylhydrazino-camptothecin 2nd diastereomer]",NCl-H460 IC50 (μg/mL) Cell count,[2]; [5],> 100 µg/mL
CC[C@@]1(O)C(=O)OCc2c1cc1n(c2=O)C(N)c2cc3ccccc3nc2-1 (stereo partly shown) [5-NH2-camptothecin],IC50,[2]; [6],11 ± 3.1 µg/mL
